Patent US20250134905A1, “USE OF SMALL-MOLECULE COMPOUND HOMOHARRINGTONINE IN MANUFACTURING DRUG FOR TREATING ACQUIRED IMMUNE DEFICIENCY SYNDROME” (Hangzhou City University, priority 2022, published 2025)

Test system: HIV-1
Test: microbe, parasite or virus in culture
Details: Human immunodeficiency virus 1, HEK293, read-out: EC50 in inhibiting the production of HIV-1

In the case of `COC(=O)C[C@](O)(CCCC(C)(C)O)C(=O)O[C@@H]1C(OC)=C[C@]23CCCN2CCc2cc4c(cc2[C@H]13)OCO4` [homoharringtonine], the EC50 is reported as 8.57 nM.
